From ChEMBL document CHEMBL5465560, “Selectivity Literature for EUbOPEN Chemogenomic Library” (2024) come the findings set out here.

The target of assay [1] is Serine/threonine-protein kinase PAK 2 (Homo sapiens) (UniProt Q13177). The assay can be described thus: Selectivity interaction (Kinase panel (Z-LYTE Assay)) EUB0001632a PAK2. The following applies: at 10 µM.
The target in assay [2] is Ribosomal protein S6 kinase alpha-6 (Homo sapiens, UniProt Q9UK32). The following applies: at 10 µM.
For assay [3], the target named is Misshapen-like kinase 1 (Homo sapiens, UniProt Q8N4C8). The following applies: at 10 µM.
The target in assay [4] is T1, Serine/threonine-protein kinase Nek3 (Homo sapiens) (UniProt P51956).
T1 sequence (whole entry): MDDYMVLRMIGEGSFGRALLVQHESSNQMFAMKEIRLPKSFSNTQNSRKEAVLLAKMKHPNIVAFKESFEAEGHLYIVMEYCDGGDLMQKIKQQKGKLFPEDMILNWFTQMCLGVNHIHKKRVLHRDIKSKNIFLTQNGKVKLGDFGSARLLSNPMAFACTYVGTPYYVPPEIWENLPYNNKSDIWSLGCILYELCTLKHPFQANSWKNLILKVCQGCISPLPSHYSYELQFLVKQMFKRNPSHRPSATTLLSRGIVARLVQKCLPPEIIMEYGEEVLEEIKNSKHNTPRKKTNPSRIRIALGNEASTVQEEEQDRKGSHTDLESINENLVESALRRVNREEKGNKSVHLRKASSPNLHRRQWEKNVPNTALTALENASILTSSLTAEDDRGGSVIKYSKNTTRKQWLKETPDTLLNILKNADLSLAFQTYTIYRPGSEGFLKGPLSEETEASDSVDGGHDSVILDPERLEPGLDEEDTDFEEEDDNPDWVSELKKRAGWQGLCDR
The assay can be described thus: Selectivity interaction (KinomeScan (DiscoverX)) EUB0000666a NEK3. The following applies: at 10 µM.

Assay [5] concerns the target T2, Mitogen-activated protein kinase 13 (Homo sapiens) (UniProt O15264).
T2 sequence (whole entry): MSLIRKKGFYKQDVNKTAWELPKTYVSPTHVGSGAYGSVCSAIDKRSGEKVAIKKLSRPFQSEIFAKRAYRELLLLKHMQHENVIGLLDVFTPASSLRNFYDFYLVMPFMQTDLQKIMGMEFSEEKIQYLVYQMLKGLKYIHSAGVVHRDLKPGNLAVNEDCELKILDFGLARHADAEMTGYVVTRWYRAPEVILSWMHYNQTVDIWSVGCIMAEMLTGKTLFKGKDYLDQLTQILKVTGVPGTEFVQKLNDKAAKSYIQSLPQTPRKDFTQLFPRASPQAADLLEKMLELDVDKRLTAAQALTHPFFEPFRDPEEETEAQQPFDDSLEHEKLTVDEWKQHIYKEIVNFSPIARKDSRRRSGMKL
As to the kind of experiment: Selectivity interaction (KinomeScan (DiscoverX)) EUB0000666a MAPK13. The following applies: at 10 µM.

Assay [6] addresses T3, Dual specificity protein kinase TTK (Homo sapiens) (UniProt P33981).
T3 sequence (whole entry): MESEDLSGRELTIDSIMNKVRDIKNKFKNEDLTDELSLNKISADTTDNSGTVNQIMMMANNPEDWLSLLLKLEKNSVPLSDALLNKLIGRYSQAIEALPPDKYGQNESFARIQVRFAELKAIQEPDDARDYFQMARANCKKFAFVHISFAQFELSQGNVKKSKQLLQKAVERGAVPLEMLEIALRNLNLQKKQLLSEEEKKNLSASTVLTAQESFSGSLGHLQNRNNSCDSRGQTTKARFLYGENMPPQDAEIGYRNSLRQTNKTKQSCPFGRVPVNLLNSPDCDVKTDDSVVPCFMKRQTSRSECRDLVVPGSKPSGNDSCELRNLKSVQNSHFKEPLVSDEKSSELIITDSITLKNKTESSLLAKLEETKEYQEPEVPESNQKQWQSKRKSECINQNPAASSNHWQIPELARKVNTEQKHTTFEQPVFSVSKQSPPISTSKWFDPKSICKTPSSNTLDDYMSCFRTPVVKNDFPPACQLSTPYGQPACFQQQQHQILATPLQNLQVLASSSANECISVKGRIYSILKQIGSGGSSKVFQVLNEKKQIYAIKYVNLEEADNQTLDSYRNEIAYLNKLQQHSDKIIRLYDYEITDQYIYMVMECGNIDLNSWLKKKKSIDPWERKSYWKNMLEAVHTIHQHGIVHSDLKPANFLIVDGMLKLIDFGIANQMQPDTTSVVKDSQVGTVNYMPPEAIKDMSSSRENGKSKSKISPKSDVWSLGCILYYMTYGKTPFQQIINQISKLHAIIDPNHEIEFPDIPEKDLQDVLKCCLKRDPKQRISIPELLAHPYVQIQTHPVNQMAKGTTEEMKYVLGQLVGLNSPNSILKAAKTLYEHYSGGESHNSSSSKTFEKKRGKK
The assay can be described thus: Selectivity interaction (KinomeScan (DiscoverX)) EUB0001079a TTK. The following applies: at 1 µM.

Assay [7] concerns the target Casein kinase II subunit alpha (Homo sapiens, UniProt P68400). The assay can be described thus: Selectivity interaction (Kinase panel (literature)) EUB0001199aCl CSNK2A1. The following applies: at 1 µM.
Assay [8] deals with T2, Mitogen-activated protein kinase 13 (Homo sapiens). The assay can be described thus: Selectivity interaction (Millipore kinase profiler) EUB0000124b MAPK13. The following applies: at 10 µM.
The target in assay [9] is T4, Myotonin-protein kinase (Homo sapiens) (UniProt Q09013).
T4 sequence (whole entry): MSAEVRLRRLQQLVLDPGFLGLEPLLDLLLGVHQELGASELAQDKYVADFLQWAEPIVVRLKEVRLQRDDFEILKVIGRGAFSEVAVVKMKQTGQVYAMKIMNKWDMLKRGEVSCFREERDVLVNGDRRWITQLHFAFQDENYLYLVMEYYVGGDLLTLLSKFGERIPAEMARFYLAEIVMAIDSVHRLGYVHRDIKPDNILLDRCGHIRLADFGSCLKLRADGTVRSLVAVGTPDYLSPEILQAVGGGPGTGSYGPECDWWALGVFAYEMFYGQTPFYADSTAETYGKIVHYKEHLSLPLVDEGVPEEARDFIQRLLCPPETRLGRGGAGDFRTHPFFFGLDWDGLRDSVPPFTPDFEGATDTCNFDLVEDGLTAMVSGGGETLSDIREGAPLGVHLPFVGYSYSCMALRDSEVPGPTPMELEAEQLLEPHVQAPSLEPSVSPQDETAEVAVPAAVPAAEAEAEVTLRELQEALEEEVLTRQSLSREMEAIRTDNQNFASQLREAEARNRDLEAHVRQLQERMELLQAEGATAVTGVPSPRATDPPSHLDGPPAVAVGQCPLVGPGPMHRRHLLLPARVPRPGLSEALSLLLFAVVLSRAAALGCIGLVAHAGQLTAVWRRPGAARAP
As to the kind of experiment: Selectivity interaction (KinomeScan (DiscoverX)) EUB0000092b DMPK. The following applies: at 10 µM.

Assay [10] deals with TGF-beta receptor type-2 (Homo sapiens) (UniProt P37173). As to the kind of experiment: Selectivity interaction (KinomeScan (DiscoverX)) EUB0000092b TGFBR2. The following applies: at 10 µM.
Chain of TGF-beta receptor type-2 (Homo sapiens) (P37173 whole entry): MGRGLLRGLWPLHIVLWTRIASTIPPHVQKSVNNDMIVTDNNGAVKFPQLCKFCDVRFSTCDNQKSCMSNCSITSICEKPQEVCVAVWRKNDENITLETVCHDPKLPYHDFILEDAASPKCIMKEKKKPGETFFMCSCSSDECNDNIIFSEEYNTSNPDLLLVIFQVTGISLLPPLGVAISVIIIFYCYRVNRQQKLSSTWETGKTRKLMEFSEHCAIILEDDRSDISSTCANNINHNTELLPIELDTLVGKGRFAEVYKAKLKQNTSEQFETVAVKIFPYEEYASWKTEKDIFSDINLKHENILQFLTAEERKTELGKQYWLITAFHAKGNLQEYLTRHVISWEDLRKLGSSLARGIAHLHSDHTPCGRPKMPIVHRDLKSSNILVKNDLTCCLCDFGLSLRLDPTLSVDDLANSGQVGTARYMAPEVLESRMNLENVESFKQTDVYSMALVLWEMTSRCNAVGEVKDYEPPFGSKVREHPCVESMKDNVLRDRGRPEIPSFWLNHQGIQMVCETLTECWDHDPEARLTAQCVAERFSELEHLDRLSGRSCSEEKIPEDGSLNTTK
The target in assay [11] is G protein-coupled receptor kinase 4 (Homo sapiens) (UniProt P32298). The assay can be described thus: Selectivity interaction (KinomeScan (DiscoverX)) EUB0000618a GRK4. The following applies: at 10 µM.
Chain of G protein-coupled receptor kinase 4 (Homo sapiens) (P32298 whole entry, looked up): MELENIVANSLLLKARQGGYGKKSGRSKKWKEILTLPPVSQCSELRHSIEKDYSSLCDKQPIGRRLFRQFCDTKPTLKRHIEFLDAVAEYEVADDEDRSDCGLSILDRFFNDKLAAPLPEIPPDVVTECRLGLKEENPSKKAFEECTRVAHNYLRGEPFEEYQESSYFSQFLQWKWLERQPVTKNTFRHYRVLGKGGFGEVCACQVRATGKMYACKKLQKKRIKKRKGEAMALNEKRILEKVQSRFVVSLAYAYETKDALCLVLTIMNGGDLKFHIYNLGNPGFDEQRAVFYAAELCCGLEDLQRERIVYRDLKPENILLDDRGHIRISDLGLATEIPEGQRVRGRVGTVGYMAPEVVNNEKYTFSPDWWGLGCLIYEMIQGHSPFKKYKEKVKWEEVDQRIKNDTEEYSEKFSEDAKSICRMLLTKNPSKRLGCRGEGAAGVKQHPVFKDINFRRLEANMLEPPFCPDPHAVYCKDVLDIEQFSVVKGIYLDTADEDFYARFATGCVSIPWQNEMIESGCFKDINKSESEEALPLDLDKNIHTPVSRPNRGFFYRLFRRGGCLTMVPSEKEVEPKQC
The target in assay [12] is Serine/threonine-protein kinase N2 (Homo sapiens, UniProt Q16513). The assay can be described thus: Selectivity interaction (Upstate Kinase Profiler service (Millipore)) EUB0000056c PKN2. The following applies: at 1 µM.
Chain of Serine/threonine-protein kinase N2 (Q16513 whole entry, looked up): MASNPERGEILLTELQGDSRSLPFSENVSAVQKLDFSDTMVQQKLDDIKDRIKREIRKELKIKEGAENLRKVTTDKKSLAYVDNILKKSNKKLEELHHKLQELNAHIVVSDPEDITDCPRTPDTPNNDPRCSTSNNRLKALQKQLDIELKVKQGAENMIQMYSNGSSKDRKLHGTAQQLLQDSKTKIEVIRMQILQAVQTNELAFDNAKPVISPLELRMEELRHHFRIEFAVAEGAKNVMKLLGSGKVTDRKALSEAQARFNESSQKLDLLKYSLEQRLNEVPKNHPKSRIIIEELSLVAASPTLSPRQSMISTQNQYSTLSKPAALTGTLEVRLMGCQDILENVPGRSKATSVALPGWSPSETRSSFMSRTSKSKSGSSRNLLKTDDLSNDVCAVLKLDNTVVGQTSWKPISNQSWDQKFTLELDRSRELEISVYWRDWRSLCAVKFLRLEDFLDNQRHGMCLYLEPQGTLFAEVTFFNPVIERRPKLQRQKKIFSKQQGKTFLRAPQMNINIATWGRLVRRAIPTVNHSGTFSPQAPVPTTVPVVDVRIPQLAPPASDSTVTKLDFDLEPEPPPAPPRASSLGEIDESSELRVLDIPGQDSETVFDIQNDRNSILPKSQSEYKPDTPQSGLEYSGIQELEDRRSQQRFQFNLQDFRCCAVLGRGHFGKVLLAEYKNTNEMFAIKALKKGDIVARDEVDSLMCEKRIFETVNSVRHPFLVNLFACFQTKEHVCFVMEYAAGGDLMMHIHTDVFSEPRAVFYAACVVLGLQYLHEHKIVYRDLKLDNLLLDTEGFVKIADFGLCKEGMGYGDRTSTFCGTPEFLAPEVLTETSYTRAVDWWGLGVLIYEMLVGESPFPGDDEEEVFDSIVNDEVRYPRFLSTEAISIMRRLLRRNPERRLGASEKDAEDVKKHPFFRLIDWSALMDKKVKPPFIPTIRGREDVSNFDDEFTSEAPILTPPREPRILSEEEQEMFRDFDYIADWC

Chain of Serine/threonine-protein kinase PAK 2 (Homo sapiens) (Q13177 whole entry): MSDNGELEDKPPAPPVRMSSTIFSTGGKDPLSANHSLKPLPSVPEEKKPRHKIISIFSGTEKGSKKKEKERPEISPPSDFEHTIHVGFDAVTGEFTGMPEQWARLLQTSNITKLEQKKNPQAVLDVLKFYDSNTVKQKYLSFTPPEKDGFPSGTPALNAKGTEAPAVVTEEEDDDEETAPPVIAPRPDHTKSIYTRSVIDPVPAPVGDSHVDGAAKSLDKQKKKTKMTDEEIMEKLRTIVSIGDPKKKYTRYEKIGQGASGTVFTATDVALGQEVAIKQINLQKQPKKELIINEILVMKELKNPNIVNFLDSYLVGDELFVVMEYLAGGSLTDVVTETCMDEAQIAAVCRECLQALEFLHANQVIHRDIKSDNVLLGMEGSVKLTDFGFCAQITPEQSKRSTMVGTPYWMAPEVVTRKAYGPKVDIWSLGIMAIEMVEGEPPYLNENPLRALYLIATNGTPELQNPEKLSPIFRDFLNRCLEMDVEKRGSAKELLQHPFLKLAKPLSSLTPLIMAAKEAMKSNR
Chain of Casein kinase II subunit alpha (P68400 whole entry, looked up): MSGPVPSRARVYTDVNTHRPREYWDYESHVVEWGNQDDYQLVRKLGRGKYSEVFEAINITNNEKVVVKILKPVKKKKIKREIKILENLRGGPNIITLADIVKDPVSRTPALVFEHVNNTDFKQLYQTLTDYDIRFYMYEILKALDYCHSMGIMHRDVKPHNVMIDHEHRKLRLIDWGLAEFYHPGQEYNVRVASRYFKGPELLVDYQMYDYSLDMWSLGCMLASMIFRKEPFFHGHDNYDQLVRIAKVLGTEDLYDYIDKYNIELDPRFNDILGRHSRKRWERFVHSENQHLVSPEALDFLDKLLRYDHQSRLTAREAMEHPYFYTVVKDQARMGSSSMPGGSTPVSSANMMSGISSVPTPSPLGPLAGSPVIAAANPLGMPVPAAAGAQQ
Chain of Ribosomal protein S6 kinase alpha-6 (Q9UK32 whole entry): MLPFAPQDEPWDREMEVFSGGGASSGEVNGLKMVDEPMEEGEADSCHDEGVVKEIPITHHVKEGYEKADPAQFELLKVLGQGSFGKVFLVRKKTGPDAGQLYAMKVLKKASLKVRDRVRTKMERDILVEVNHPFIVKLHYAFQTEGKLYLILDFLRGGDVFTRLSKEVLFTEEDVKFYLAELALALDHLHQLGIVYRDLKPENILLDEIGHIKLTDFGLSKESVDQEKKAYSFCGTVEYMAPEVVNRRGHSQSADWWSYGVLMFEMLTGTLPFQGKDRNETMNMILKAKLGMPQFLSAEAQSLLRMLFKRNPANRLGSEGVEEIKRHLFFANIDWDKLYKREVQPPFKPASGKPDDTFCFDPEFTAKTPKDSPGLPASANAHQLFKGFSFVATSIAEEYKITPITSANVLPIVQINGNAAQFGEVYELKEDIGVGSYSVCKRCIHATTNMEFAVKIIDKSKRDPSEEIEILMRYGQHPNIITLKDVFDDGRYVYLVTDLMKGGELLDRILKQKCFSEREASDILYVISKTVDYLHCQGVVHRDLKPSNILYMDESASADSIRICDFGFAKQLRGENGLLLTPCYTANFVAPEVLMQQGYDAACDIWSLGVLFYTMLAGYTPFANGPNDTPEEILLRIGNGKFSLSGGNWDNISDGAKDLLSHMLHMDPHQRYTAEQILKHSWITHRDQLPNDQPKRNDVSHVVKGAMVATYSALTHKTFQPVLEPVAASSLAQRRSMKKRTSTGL

Regarding `Cn1cc(-n2cnc3c(NCc4nc5cc(Cl)c(Cl)cc5[nH]4)nc(N4CCOCC4)nc32)cn1`, in assay [1], the % of control is -1.61%. In the case of `Cc1cc([C@@H](C)Nc2ccccc2C(=O)O)c2nc(N3CCOCC3)cc(=O)n2c1` [AZD-6482], the % of control in assay [2] and in [3] was 100% throughout. For `O=C(NOC[C@H](O)CO)c1ccc(F)c(F)c1Nc1ccc(I)cc1F`, the % of control in assay [4] was 100%; in assay [5], 6.1%. With `Nc1cnc(N2CCc3cc(S(=O)(=O)Nc4c(F)cc(Cl)cc4F)cc(N4CCCC4=O)c32)nc1` [TP-020n], the % of control in [6] was determined as 90%. For the compound `CN1Cc2nccc(-c3cn(C)nc3-c3ccc(F)cc3)c2C1=O`, the % of inhibition in [7] was -3%. On to `CC(=O)Nc1cccc(-n2c(=O)n(C3CC3)c(=O)c3c(Nc4ccc(I)cc4F)n(C)c(=O)c(C)c32)c1`, for which, in assay [8], the % of control is 109%.

Turning to `CCC(=O)N1CCN(c2ccc(-n3c(=O)ccc4cnc5ccc(-c6cnc7ccccc7c6)cc5c43)cc2C(F)(F)F)CC1`, the % of control in assay [9] and in assay [10] was 77% in each case. Take `O[C@H]1CC[C@H](Nc2ncc3nc(Nc4c(F)cc(F)cc4F)n([C@H]4CCOC4)c3n2)CC1`: in assay [11], the % of control turned out to be 98%. Consider `Cc1ccc(-c2ccc3c(ccc4sc5c(c43)NC[C@@H](C)NC5=O)n2)cn1`, for which the % of inhibition in assay [12] was -8%.
